Results reported in the NIST ThermoML archive (doi:10.1016/j.jct.2014.06.012).

Conditions: for molar entropy: 101.33 kPa; for Triple point temperature: Adiabatic calorimetry

O=P([O-])([O-])[O-].[Cs+].[Mn+2] [cesium manganese(II) phosphate]
Conditions	molar entropy [J/K/mol]
5 K, Crystal 3, Vacuum adiabatic calorimetry	0.572
6 K, Crystal 3, Vacuum adiabatic calorimetry	0.9894
6.9 K, Crystal 2, Vacuum adiabatic calorimetry	3.334
6.9 K, Crystal 3, Vacuum adiabatic calorimetry	1.463
7 K, Crystal 2, Vacuum adiabatic calorimetry	3.434
8 K, Crystal 2, Vacuum adiabatic calorimetry	4.099
9 K, Crystal 2, Vacuum adiabatic calorimetry	4.639
10 K, Crystal 2, Vacuum adiabatic calorimetry	5.163
15 K, Crystal 2, Vacuum adiabatic calorimetry	8.007
20 K, Crystal 2, Vacuum adiabatic calorimetry	11.12
25 K, Crystal 2, Vacuum adiabatic calorimetry	14.62
30 K, Crystal 2, Vacuum adiabatic calorimetry	18.46
35 K, Crystal 2, Vacuum adiabatic calorimetry	22.54
40 K, Crystal 2, Vacuum adiabatic calorimetry	26.78
45 K, Crystal 2, Vacuum adiabatic calorimetry	31.05
50 K, Crystal 2, Vacuum adiabatic calorimetry	35.27
60 K, Crystal 2, Vacuum adiabatic calorimetry	43.62
70 K, Crystal 2, Vacuum adiabatic calorimetry	51.79
80 K, Crystal 2, Vacuum adiabatic calorimetry	59.71
90 K, Crystal 2, Vacuum adiabatic calorimetry	67.35
100 K, Crystal 2, Vacuum adiabatic calorimetry	74.73
110 K, Crystal 2, Vacuum adiabatic calorimetry	81.91
120 K, Crystal 2, Vacuum adiabatic calorimetry	88.96
127 K, Crystal 1, Vacuum adiabatic calorimetry	95.03
127 K, Crystal 2, Vacuum adiabatic calorimetry	93.79
130 K, Crystal 1, Vacuum adiabatic calorimetry	97.11
140 K, Crystal 1, Vacuum adiabatic calorimetry	103.68
150 K, Crystal 1, Vacuum adiabatic calorimetry	110.17
160 K, Crystal 1, Vacuum adiabatic calorimetry	116.4
170 K, Crystal 1, Vacuum adiabatic calorimetry	122.56
180 K, Crystal 1, Vacuum adiabatic calorimetry	128.54
190 K, Crystal 1, Vacuum adiabatic calorimetry	134.36
200 K, Crystal 1, Vacuum adiabatic calorimetry	140.02
210 K, Crystal 1, Vacuum adiabatic calorimetry	145.67
220 K, Crystal 1, Vacuum adiabatic calorimetry	151.07
230 K, Crystal 1, Vacuum adiabatic calorimetry	156.4
240 K, Crystal 1, Vacuum adiabatic calorimetry	161.63
250 K, Crystal 1, Vacuum adiabatic calorimetry	166.79
260 K, Crystal 1, Vacuum adiabatic calorimetry	171.86
270 K, Crystal 1, Vacuum adiabatic calorimetry	176.77
280 K, Crystal 1, Vacuum adiabatic calorimetry	181.59
290 K, Crystal 1, Vacuum adiabatic calorimetry	186.41
298.15 K, Crystal 1, Vacuum adiabatic calorimetry	190.24
300 K, Crystal 1, Vacuum adiabatic calorimetry	191.15
310 K, Crystal 1, Vacuum adiabatic calorimetry	195.81
320 K, Crystal 1, Vacuum adiabatic calorimetry	200.46
330 K, Crystal 1, Vacuum adiabatic calorimetry	205.03
340 K, Crystal 1, Vacuum adiabatic calorimetry	209.61
350 K, Crystal 1, Small sample (50 mg) DSC	214.51
360 K, Crystal 1, Small sample (50 mg) DSC	218.67
370 K, Crystal 1, Small sample (50 mg) DSC	222.83
380 K, Crystal 1, Small sample (50 mg) DSC	226.99
390 K, Crystal 1, Small sample (50 mg) DSC	231.14
400 K, Crystal 1, Small sample (50 mg) DSC	235.3
410 K, Crystal 1, Small sample (50 mg) DSC	239.46
420 K, Crystal 1, Small sample (50 mg) DSC	243.61
430 K, Crystal 1, Small sample (50 mg) DSC	247.77
440 K, Crystal 1, Small sample (50 mg) DSC	251.93
450 K, Crystal 1, Small sample (50 mg) DSC	255.25
460 K, Crystal 1, Small sample (50 mg) DSC	259.41
470 K, Crystal 1, Small sample (50 mg) DSC	262.74
480 K, Crystal 1, Small sample (50 mg) DSC	266.06
490 K, Crystal 1, Small sample (50 mg) DSC	270.22
500 K, Crystal 1, Small sample (50 mg) DSC	273.55
510 K, Crystal 1, Small sample (50 mg) DSC	276.87
520 K, Crystal 1, Small sample (50 mg) DSC	280.2
530 K, Crystal 1, Small sample (50 mg) DSC	283.52
540 K, Crystal 1, Small sample (50 mg) DSC	286.85
550 K, Crystal 1, Small sample (50 mg) DSC	290.18
560 K, Crystal 1, Small sample (50 mg) DSC	293.5
570 K, Crystal 1, Small sample (50 mg) DSC	296.83
580 K, Crystal 1, Small sample (50 mg) DSC	300.15
590 K, Crystal 1, Small sample (50 mg) DSC	302.65
600 K, Crystal 1, Small sample (50 mg) DSC	305.97
610 K, Crystal 1, Small sample (50 mg) DSC	309.3
620 K, Crystal 1, Small sample (50 mg) DSC	311.79
630 K, Crystal 1, Small sample (50 mg) DSC	315.12
640 K, Crystal 1, Small sample (50 mg) DSC	317.61
650 K, Crystal 1, Small sample (50 mg) DSC	320.94

Conditions	Triple point temperature [K]
Crystal 2	127
Crystal 3	6.9
